What was measured:
[1] = target: T1, HCV genotype 1b (BK) NS3 modified enzyme with a R155K mutation (Hepatitis C virus genotype 1b, UniProt P26663, R1181K); assay: HCV NS3 protease time-resolved fluorescence (TRF) assay, genotype 1b R155K; type: biochemical; conditions: Ki 1b R155K
T1 construct: HCV genotype 1b (BK) NS3 modified enzyme
Procedure: (§1) The HCV NS3 protease inhibitory activity of the present compounds may be tested using assays known in the art. One such assay is HCV NS3 protease time-resolved fluorescence (TRF) assay as described below and in International Patent Application Publication No. WO2006/102087. Other examples of such assays are described in e.g., International Patent Application Publication No. WO2005/046712. The assay is performed in a final volume of 100 μl in assay buffer containing 50 mM HEPES, pH 7.5, 150 mM NaCl, 15% glycerol, 0.15% Triton X-100, 10 mM DTT, and 0.1% PEG 8000. NS3 protease is pre-incubated with various concentrations of inhibitors in DMSO for 30 minutes. The reaction is initiated by adding the TRF peptide substrate (final concentration 100 nM). NS3 mediated hydrolysis of the substrate is quenched after 1 hour at room temperature with 100 μl of 500 mM MES, pH 5.5. Product fluorescence is detected using either a VICTOR V2 or FUSION fluorophotometer (Perkin Elmer Life and Analytical Sciences) with excitation at 340 nm and emission at 615 nm with a 400 μs delay. Testing concentrations of different enzyme forms are selected to result in a signal to background ratio (S/B) of 10-30. IC50 values are derived using a standard four-parameter fit to the data. K; values are derived from IC50 values using the following formula, IC50=Ki(1+[S]/Km), Eqn (1), where [S] is the concentration of substrate peptide in the reaction and KM is the Michaelis constant. See Gallinari et al., 1999, Biochem. 38:5620-32; Gallinari et al., 1998, J. Virol. 72:6758-69; Taliani et al., 1996, Anal. Biochem. 240:60-67.
(§2) The HCV NS3 protease inhibitory activity was measured using the protease time-resolved fluorescence (TRF) assay as described below and in International Patent Application Publication No. WO 2006/102087. The assay was performed with HCV genotype 1b (BK) NS3 modified enzyme with a R155K mutation and genotype 3a (3A-1).
(§3) The assay was performed in a final volume of 50 μl in assay buffer containing 50 mM HEPES, pH 7.5, 150 mM NaCl, 15% glycerol, 0.15% TRITON X-100, 10 mM DTT, and 0.1% PEG 8000. NS3 and NS4A protease is pre-incubated with various concentrations of inhibitors in DMSO for 10 minutes. The reaction was initiated by adding the TRF peptide substrate (final concentration 25 nM) and NS3 mediated hydrolysis of the substrate proceeds for 6 hours at room temperature. Product fluorescence is detected using an Envision plate reader (Perkin Elmer) with excitation at 340 nm and emission at 615 nm with a 400 μs delay. Testing concentrations of the enzymes were selected to result in a signal to background ratio (S/B) of 5-20. IC50 values are derived using a standard four-parameter fit to the data.
(§4) NS3 and NS4A protease is pre-incubated with various concentrations of inhibitors in DMSO for 30 minutes. The reaction is initiated by adding the TRF peptide substrate (final concentration 100 nM). NS3 mediated hydrolysis of the substrate is quenched after 1 hour at room temperature with 100 μl of 500 mM MES, pH 5.5. Product fluorescence is detected using either a VICTOR V2 or FUSION fluorophotometer (Perkin Elmer Life and Analytical Sciences) with excitation at 340 nm and emission at 615 nm with a 400 μs delay. Testing concentrations of the enzymes are selected to result in a signal to background ratio (S/B) of 8-30. IC50 values are derived using a standard four-parameter fit to the data. Ki values are derived from IC50 values using the following formula, IC50=Ki(1+[S][…]), Eqn (1), where [S] is the concentration of substrate peptide in the reaction and KM is the Michaelis constant. See Gallinari et al., 1999, Biochem. 38:5620-32; Gallinari et al., 1998, J. Virol. 72:6758-69; and Taliani et al., 1996, Anal. Biochem. 240:60-67. ND means not determined.

[2] = target: HCV NS3 protease genotype 3a (3A-1) (Hepatitis C virus genotype 3a, UniProt Q81258); assay: HCV NS3 protease time-resolved fluorescence (TRF) assay, genotype 3a; type: biochemical; conditions: Ki 3a
Procedure: as §1, §2, §3, §4

[3] = genotype 1b (BK) NS3 R155K, single value

Row | SMILES | Ki [1, 3] [nM] | Ki [2] [nM] | Ki ([1]; first of two values printed in the cell (not explained)) [nM] | Ki ([1]; second of two values printed in the cell (not explained)) [nM]
1 | C=C[C@@H]1C[C@]1(NC(=O)[C@@H]1C[C@@H]2CN1C(=O)[C@H](C(C)(C)C)NC(=O)O[C@@H]1C[C@H]1CCCCCc1c(nc3cc(F)ccc3c1OCCCN1CCCC1)O2)C(=O)NS(=O)(=O)C1(C)CC1 [Example 151, (1aR,5S,8S,10R,22aR)-5-tert-butyl-N-[(1R,2S)-2-ethenyl-1-{[(1-methylcyclopropyl)sulfonyl]carbamoyl}cyclopropyl]-14-fluoro-3,6-dioxo-17-[3-(pyrrolidin-1-yl)propoxy]-1,1a,3,4,5,6,9,10,18, 19,20,21,22,22a-tetradecahydro-8H-7,10-methanocyclopropa[18,19][1,10,3,6] dioxadiazacyclononadecino[11,12-b] quinoline-8-carboxamide] | 0.074 | 0.62 | – | –
2 | C=C[C@@H]1C[C@]1(NC(=O)[C@@H]1C[C@@H]2CN1C(=O)[C@H](C(C)(C)C)NC(=O)O[C@@H]1C[C@H]1CCCCCc1c(nc3ccccc3c1OCCCN1CCCC1)O2)C(=O)NS(=O)(=O)C1(C)CC1 [Example 117, (1aR,5S,8S,10R,22aR)-5-tert-butyl-N-[(1R,2S)-2-ethenyl-1-{[(1-methylcyclopropyl)sulfonyl]carbamoyl}cyclopropyl]-3,6-dioxo-17-[3-(pyrrolidin-1-yl)propoxy]-1,1a,3,4,5,6,9,10,18,19,20,21,22,22a-tetradeca hydro-8H-7,10-methano cyclopropa[18,19][1,10,3,6] dioxadiazacyclononadecino [11,12-b]quinoline-8-carboxamide] | 0.08 | 0.93 | – | –
3 | C=C[C@@H]1C[C@]1(NC(=O)[C@@H]1C[C@@H]2CN1C(=O)[C@H](C(C)(C)C)NC(=O)O[C@@H]1C[C@H]1CCCCCc1c(nc3cc(C(C)C)ccc3c1OCCCNC(C)C)O2)C(=O)NS(=O)(=O)C1(C)CC1 [Example 160, (1aR,5S,8S,10R,22aR)-5-tert-butyl-N-[(1R,2S)-2-ethenyl-1-{[(1-methylcyclopropyl)sulfonyl]carbamoyl}cyclopropyl]-3,6-dioxo-14-(propan-2-yl)-17-[3-(propan-2-ylamino)propoxy]-1,1a,3,4,5,6,9, 10,18,19,20,21,22,22a-tetradeca hydro-8H-7,10-methanocyclopropa[18,19] [1,10,3,6]dioxadiazacyclononadecino [11,12-b]quinoline-8-carboxamide] | 0.053 | 0.44 | – | –
4 | C=C[C@@H]1C[C@]1(NC(=O)[C@@H]1C[C@@H]2CN1C(=O)[C@H](C(C)(C)C)NC(=O)O[C@@H]1CCC[C@H]1CCCCCc1c(nc3ccccc3c1OCCN1CCOCC1)O2)C(=O)NS(=O)(=O)C1(COC)CC1 [Example 61, (3aR,7S,10S,12R,24aR)-7-tert-butyl-N-[(1R,2S)-2-ethenyl-1-({[1-(methoxymethyl)cyclopropyl]sulfonyl}carbamoyl)cyclopropyl]-19-[2-(morpholin-4-yl)ethoxy]-5,8-dioxo-1,2,3,3a,5,6,7,8,11,12,20,21,22,23,24,24a-hexadecahydro-10H-9,12-methanocyclopenta[18,19][1,10,3,6]dioxadiazacyclononadecino[11,12-b]quinoline-10-carboxamide] | 0.7 | 20 | – | –
5 | CC[C@@H]1C[C@]1(NC(=O)[C@@H]1C[C@@H]2CN1C(=O)[C@H](C1CCCC1)NC(=O)O[C@@H]1CCC[C@H]1CC/C=C/Cc1c(nc3ccccc3c1OC)O2)C(=O)NS(=O)(=O)C1CC1 [Example 5, (3aR,7S,10S,12R,21E,24aS)-7-cyclopentyl-N-{(1R,2R)-1-[(cyclopropylsulfonyl)carbamoyl]-2-ethylcyclopropyl}-19-methoxy-5,8-dioxo-1,2,3,3a, 5,6,7,8,11,12,20,23,24,24a-tetradecahydro-10H-9,12-methanocyclopenta[18,19][1,10,3,6] dioxadiazacyclononadecino[11,12-b]quinoline-10-carboxamide] | 0.59 | 17 | – | –
6 | C=C[C@@H]1C[C@]1(NC(=O)[C@@H]1C[C@@H]2CN1C(=O)[C@H](C1(C)CCCCC1)NC(=O)O[C@@H]1C[C@H]1CCCCCc1c(nc3ccccc3c1OC1CCN(C)CC1)O2)C(=O)NS(=O)(=O)C1(C)CC1 [Example 232, (1aR,5S,8S,10R,22aR)—N-[(1R,2S)-2-ethenyl-1-{[(1-methylcyclopropyl)sulfonyl]carbamoyl}cyclopropyl]-5-(1-methylcyclohexyl)-17-[(1-methylpiperidin-4-yl)oxy]-3,6-dioxo-1,1a,3,4,5,6,9,10,18,19,20,21,22,22a-tetradecahydro-8H-7,10-methanocyclopropa[18,19][1,10,3,6]dioxadiazacyclononadecino[11,12-b]quinoline-8-carboxamide] | – | 0.275 | 0.02 | 0.04
7 | C=C[C@@H]1C[C@]1(NC(=O)[C@@H]1C[C@@H]2CN1C(=O)[C@H](C(C)(C)C)NC(=O)O[C@@H]1C[C@H]1CCCCCc1c(nc3ccccc3c1OCCNC1CC1)O2)C(=O)NS(=O)(=O)C1(C)CC1 [Example 178, (1aR,5S,8S,10R,22aR)-5-tert-butyl-17-[2-(cyclopropylamino)ethoxy]-N-[(1R,2S)-2-ethenyl-1-{[(1-methylcyclopropyl)sulfonyl]carbamoyl}cyclopropyl]-3,6-dioxo-1,1a,3,4,5,6,9,10, 18,19,20,21,22,22a-tetradeca hydro-8H-7,10-methanocyclopropa[18,19][1,10,3,6] dioxadiazacyclononadecino[11,12-b] quinoline-8-carboxamide] | 0.14 | 3.6 | – | –
8 | C=C[C@@H]1C[C@]1(NC(=O)[C@@H]1C[C@@H]2CN1C(=O)[C@H](C1CCCC1)NC(=O)O[C@@H]1C[C@H]1CCCCCc1c(nc3ccccc3c1OC)O2)C(=O)NS(=O)(=O)C1CC1 [Example 28, (1aR,5S,8S,10R,22aR)-5-cyclo pentyl-N-{(1R,2S)-1-[(cyclopropylsulfonyl)carbamoyl]-2-ethenylcyclopropyl}-17-methoxy-3,6-dioxo-1,1a, 3,4,5,6,9,10,18,19,20,21,22,22a-tetradecahydro-8H-7,10-methanocyclopropa[18,19][1,10,3,6] dioxadiazacyclononadecino[11,12-b]quinoline-8-carboxamide] | 0.7 | 35 | – | –
9 | C=C[C@@H]1C[C@]1(NC(=O)[C@@H]1C[C@@H]2CN1C(=O)[C@H](C1CCCC1)NC(=O)O[C@]1(C)C[C@H]1CC/C=C/Cc1c(nc3ccccc3c1O)O2)C(=O)NS(=O)(=O)C1CC1 [Example 19, (1aR,5S,8S,10R,19E,22aR)-5-cyclopentyl-N-{(1R,2S)-1-[(cyclopropylsulfonyl)carbamoyl]-2-ethenylcyclopronyl}-17-hydroxy-1a-methyl-3,6-dioxo-1,1a,3,4,5,6,9,10,18,21,22,22a-dodecahydro-8H-7,10-methanocyclopropa[18,19][1,10,3,6]dioxadiazacyclononadecino[11,12-b]quinoline-8-carboxamide] | 0.091 | – | – | –
10 | C=C[C@@H]1C[C@]1(NC(=O)[C@@H]1C[C@@H]2CN1C(=O)[C@H](C1CCCC1)NC(=O)O[C@]1(C)CCC[C@H]1CCCCCc1c(nc3ccccc3c1O)O2)C(=O)NS(=O)(=O)C1CC1 (single isomer, unassigned) [Example 29] | 0.12 | – | – | –

Reference: patent US9328138B2 (priority 2011, dated 2016)
